Like-named read-outs stand apart in the source and are kept apart here.
What was measured:
[1] = tested on: Pyricularia oryzae; experiment: microbe, parasite or virus in culture; assay type: cell-based; settings: for inhibition of growth at 300 ppm: 168 h, read-out: % control compared to the untreated check (radial growth); for inhibition at 300 ppm: read-out: PYRIOR % inhibition
[2] = tested on: Rhizoctonia solani; experiment: Rhizoctonia solani (rice sheath blight/potato black scurf) in vitro test, radial growth on Potato Dextrose Agar; assay type: cell-based; settings: for inhibition of growth at 300 ppm: 168 h, seven days, 25° C., read-out: % control compared to the untreated check (radial growth); for inhibition at 300 ppm: Table 3 comparison, read-out: RHIZSO % inhibition
[3] = tested on: Botrytis cinerea; experiment: Botrytis cinerea (gray mold) in vitro test, radial growth on Potato Dextrose Agar; assay type: cell-based; settings: for inhibition of growth at 300 ppm: 168 h, seven days, 22° C., read-out: % (control) compared to the untreated check (radial growth); for inhibition at 300 ppm: read-out: BOTRCI % inhibition
[4] = tested on: Alternaria solani; experiment: Alternaria solani (early blight of tomato/potato) in vitro test, radial growth on Potato Dextrose Agar; assay type: cell-based; settings: for inhibition of growth at 300 ppm: 168 h, seven days, 25° C., read-out: % control compared to the untreated check (radial growth); for inhibition at 300 ppm: Table 3 comparison, read-out: ALTESO % inhibition
[5] = tested on: Colletotrichum capsici; experiment: Colletotrichum capsici (anthracnose) in vitro test, radial growth on Potato Dextrose Agar; assay type: cell-based; settings: Colletotrichum truncatum; for inhibition of growth at 300 ppm: 168 h, seven days, 25° C., read-out: % control compared to the untreated check (radial growth); for inhibition at 300 ppm: Table 3 comparison, read-out: COLLCA % inhibition
[6] = tested on: Septoria lycopersici; experiment: Septoria lycopersici (leaf spot of tomato) in vitro test, radial growth on Potato Dextrose Agar; assay type: cell-based; settings: 168 h, seven days, 25° C., read-out: % control compared to the untreated check (radial growth)
[7] = tested on: Fusarium culmorum; experiment: Fusarium culmorum (foot rot of cereals) in vitro test, radial growth on Potato Dextrose Agar; assay type: cell-based; settings: Fusarium culmorum; for inhibition of growth at 300 ppm: 168 h, read-out: % control compared to the untreated check (radial growth); for inhibition at 300 ppm: Table 3 comparison, read-out: FUSACU % inhibition
[8] = tested on: Fusarium culmorum; experiment: Greenhouse Fusarium culmorum test in wheat, preventive; assay type: in vivo; settings: 24 h, read-out: Efficacy (% control), disease severity vs untreated check
Method in brief: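 Young greenhouse wheat sprayed preventively at stated rates (compounds in 2% DMSO/acetone, diluted in water), inoculated one day later with 2×10^6 Fusarium culmorum spores in 2% malt, held at 24 °C, 80-90% RH. Disease severity (0-100%) rated 3, 7, 10 and 15 days after application; % control versus untreated, phytotoxicity also recorded.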

[9] = tested on: Botrytis cinera; experiment: Greenhouse Botrytis cinera test in tomato, preventive; assay type: in vivo; settings: 24 h, plants sprayed one day before inoculation, read-out: Efficacy (% control), disease severity vs untreated check
[10] = tested on: Corynespora cassicola; experiment: Table 3 comparative % inhibition, Corynespora cassicola (CORYCA); assay type: cell-based; settings: Table 3 comparison
[11] = tested on: Pyricularia oryzae; experiment: whole plant or invertebrate; assay type: in vivo; settings: 24 h, read-out: Efficacy (% control), disease severity vs untreated check
[12] = tested on: Alternaria solani; experiment: Greenhouse Alternaria solani test in tomato, preventive; assay type: in vivo; settings: 24 h, tomato plants sprayed one day before inoculation, read-out: Efficacy (% control), disease severity vs untreated check
Method in brief: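 Preventive test: greenhouse tomato plants sprayed with compounds (2% DMSO/acetone in water) at stated rates, inoculated one day later with Alternaria solani spores (0.24×10^6 in 2% malt), held at 22-24 °C, 90-95% RH. % control versus untreated plants; phytotoxicity also scored.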

[13] = Dose 300 ppm, Table 3 comparison

SMILES	inhibition of growth at 300 ppm [1]	inhibition at 300 ppm [1]	inhibition of growth at 300 ppm [2]	inhibition at 300 ppm [2]	inhibition of growth at 300 ppm [3]	inhibition at 300 ppm [3, 13]	inhibition of growth at 300 ppm [4]	inhibition at 300 ppm [4]	inhibition of growth at 300 ppm [5]	inhibition at 300 ppm [5]	inhibition of growth at 300 ppm [6]	inhibition of growth at 300 ppm [7]	inhibition at 300 ppm [7]	pest or weed control at 500 ppm [8]	pest or weed control at 500 ppm [9]	inhibition at 300 ppm [10]	pest or weed control at 500 ppm [11]	pest or weed control at 500 ppm [12]	inhibition at 300 ppm [3]
CCN(C)C=Nc1cc(C)c(Cc2ccccc2)cc1C [Compound 1, N′-(4-benzyl-2,5-dimethylphenyl)-N-ethyl-N-methylformimidamide]	> 75%	100%	> 80%	100%	> 80%	100%	> 75%	100%	> 80%	100%	> 70%	75%	100%	70 to 100%	70 to 100%	100%	–	–	–
CCN(C)C=Nc1cc(C)c(Cc2ccccc2F)cc1C [Compound 15, N-ethyl-N′-(4-(2-fluorobenzyl)-2,5-dimethylphenyl)-N-methylformimidamide]	> 75%	100%	> 80%	100%	> 80%	100%	> 75%	100%	> 80%	100%	> 70%	75%	100%	–	70 to 100%	100%	–	–	–
CCN(C)C=Nc1cc(C)c(Cc2ccccc2F)cc1Cl [Compound 16, N′-(2-chloro-4-(2-fluorobenzyl)-5-methylphenyl)-N-ethyl-N-methylformimidamide]	> 75%	100%	> 80%	100%	> 80%	100%	> 75%	100%	> 80%	100%	> 70%	75%	100%	70 to 100%	–	100%	–	–	–
CCN(C)C=Nc1cc(C)c(Cc2ccc(C#N)cc2)cc1C [Compound 48, N′-(4-(4-cyanobenzyl)-2,5-dimethylphenyl)-N-ethyl-N-methylformimidamide]	> 75%	–	> 80%	–	> 80%	–	> 75%	–	> 80%	–	> 70%	75%	–	–	–	–	70 to 100%	70 to 100%	–
CCN(C)C=Nc1cc(C)c(Cc2ccccc2)cc1Cl [Compound 74, N′-(4-benzyl-2-chloro-5-methylphenyl)-N-ethyl-N-methylformimidamide]	> 75%	100%	> 80%	100%	> 80%	–	> 75%	100%	> 80%	100%	> 70%	75%	94.5%	–	–	71.2%	–	–	94.5%
CCN(C)C=Nc1cc(C)c(Cc2ccc(C(F)(F)F)cc2)cc1C [Compound 94, N′-(2,5-dimethyl-4-(4-(trifluoromethyl)benzyl)phenyl)-N-ethyl-N-methylformimidamide]	> 75%	–	> 80%	–	> 80%	–	> 75%	–	> 80%	–	> 70%	75%	–	–	70 to 100%	–	70 to 100%	–	–
CCN(C)C=Nc1cc(C)c(Cc2cc(C(F)(F)F)cc(C(F)(F)F)c2)cc1Cl [Compound 96, N′-(4-(3,5-bis(trifluoromethyl)benzyl)-2-chloro-5-methylphenyl)-N-ethyl-N-methylformimidamide]	–	–	–	–	–	–	> 75%	–	–	–	–	–	–	70 to 100%	–	–	70 to 100%	–	–
CCN(C)C=Nc1cc(Cl)c(Cc2ccccc2F)cc1Cl [Compound 149, N′-(2,5-dichloro-4-(2-fluorobenzyl)phenyl)-N-ethyl-N-methylformimidamide]	> 75%	–	–	–	> 80%	–	> 75%	–	–	–	–	–	–	70 to 100%	–	–	70 to 100%	–	–
CCN(C)C=Nc1cc(Cl)c(Cc2cccc(C(F)(F)F)c2)cc1Cl [Compound 183, N′-(2,5-dichloro-4-(3-(trifluoromethyl)benzyl)phenyl)-N-ethyl-N-methylformimidamide]	> 75%	–	> 80%	–	> 80%	–	–	–	–	–	–	–	–	70 to 100%	–	–	70 to 100%	–	–
Cc1cc(C(C#N)c2cccc(C(F)(F)F)c2)c(C)cc1N=CN(C)C (stereo not drawn) [N′-(4-(cyano(3-(trifluoromethyl)phenyl)methyl)-2,5-dimethylphenyl)-N,N-dimethylformimidamide, reference compound]	–	100%	–	80.9%	–	77.3%	–	79.8%	–	41.3%	–	–	0%	–	–	58.7%	–	–	–
CCN(C)C=Nc1cc(C)c(C(C#N)c2cccc(C(F)(F)F)c2)cc1C (stereo not drawn) [N′-(4-(cyano(3-(trifluoromethyl)phenyl)methyl)-2,5-dimethylphenyl)-N-ethyl-N-methylformimidamide]	–	100%	–	100%	–	100%	–	100%	–	100%	–	–	0%	–	–	64.4%	–	–	–
